What was measured:
[1] = target: T1, α1A adrenergic receptor (Homo sapiens, UniProt P35348); test: Radioligand binding, α1A adrenergic receptor ([3H]prazosin)
T1 construct: expressed in transfected cells; host or cells: Chinese hamster ovary cell line (membrane preparation)
T1 sequence (P35348 1-466): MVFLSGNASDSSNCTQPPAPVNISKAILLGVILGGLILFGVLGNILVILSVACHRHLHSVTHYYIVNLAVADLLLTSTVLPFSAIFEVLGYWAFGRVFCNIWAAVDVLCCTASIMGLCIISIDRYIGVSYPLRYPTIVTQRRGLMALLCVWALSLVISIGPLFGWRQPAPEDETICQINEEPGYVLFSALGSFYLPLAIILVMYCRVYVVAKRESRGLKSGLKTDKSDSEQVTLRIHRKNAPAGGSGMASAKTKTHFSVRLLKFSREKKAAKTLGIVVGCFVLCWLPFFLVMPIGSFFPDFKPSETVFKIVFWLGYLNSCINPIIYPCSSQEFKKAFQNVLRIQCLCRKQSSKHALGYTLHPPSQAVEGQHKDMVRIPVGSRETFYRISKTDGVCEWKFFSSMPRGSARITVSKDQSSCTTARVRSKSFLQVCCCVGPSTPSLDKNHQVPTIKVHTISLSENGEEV

[2] = target: T2, dopaminergic D2 receptor (Homo sapiens, UniProt P14416); test: Radioligand binding, dopaminergic D2 receptor ([3H]spiperone)
T2 construct: expressed in transfected cells; host or cells: HEK 293 (membrane preparation)
T2 sequence (P14416 whole entry): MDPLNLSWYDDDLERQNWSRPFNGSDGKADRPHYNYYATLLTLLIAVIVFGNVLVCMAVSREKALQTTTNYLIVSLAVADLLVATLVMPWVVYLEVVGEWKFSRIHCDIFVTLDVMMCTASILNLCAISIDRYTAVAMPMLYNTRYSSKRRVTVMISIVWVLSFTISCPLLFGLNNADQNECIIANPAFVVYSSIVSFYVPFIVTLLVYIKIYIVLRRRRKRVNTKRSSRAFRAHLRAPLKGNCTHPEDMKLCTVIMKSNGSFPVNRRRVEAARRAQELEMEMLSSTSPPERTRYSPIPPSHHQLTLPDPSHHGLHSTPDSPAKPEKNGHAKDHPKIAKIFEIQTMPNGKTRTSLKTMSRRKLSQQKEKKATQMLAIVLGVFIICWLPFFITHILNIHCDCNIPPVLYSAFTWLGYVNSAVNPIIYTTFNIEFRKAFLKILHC

[3] = target: hDAT (Homo sapiens, UniProt Q01959); test: Radioligand binding, DAT ([3H]WIN35,428); set-up: expressed in transfected cells; host or cells: HEK 293 (membrane preparation)
hDAT, sequence (Q01959 whole entry): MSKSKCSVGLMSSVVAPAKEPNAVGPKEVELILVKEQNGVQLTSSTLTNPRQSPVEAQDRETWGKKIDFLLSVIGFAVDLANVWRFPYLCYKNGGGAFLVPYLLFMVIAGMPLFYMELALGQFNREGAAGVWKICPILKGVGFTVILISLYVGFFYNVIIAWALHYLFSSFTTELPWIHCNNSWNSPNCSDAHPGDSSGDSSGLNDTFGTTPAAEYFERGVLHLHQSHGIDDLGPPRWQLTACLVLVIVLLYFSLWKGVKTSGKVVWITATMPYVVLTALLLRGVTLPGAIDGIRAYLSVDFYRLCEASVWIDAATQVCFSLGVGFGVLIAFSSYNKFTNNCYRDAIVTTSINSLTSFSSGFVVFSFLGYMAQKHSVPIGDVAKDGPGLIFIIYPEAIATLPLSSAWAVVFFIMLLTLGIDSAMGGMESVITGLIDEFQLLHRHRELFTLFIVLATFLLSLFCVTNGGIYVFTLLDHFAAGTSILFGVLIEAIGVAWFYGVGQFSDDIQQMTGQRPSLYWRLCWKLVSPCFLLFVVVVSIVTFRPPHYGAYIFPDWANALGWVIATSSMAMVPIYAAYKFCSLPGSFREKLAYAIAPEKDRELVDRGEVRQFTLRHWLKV

[4] = target: T3, 5-HT1A receptor (Homo sapiens, UniProt P08908); test: Radioligand binding, 5-HT1A receptor ([3H]8-OH-DPAT)
T3 construct: expressed in transfected cells; host or cells: HEK 293 (membrane preparation)
T3 sequence (P08908 1-422): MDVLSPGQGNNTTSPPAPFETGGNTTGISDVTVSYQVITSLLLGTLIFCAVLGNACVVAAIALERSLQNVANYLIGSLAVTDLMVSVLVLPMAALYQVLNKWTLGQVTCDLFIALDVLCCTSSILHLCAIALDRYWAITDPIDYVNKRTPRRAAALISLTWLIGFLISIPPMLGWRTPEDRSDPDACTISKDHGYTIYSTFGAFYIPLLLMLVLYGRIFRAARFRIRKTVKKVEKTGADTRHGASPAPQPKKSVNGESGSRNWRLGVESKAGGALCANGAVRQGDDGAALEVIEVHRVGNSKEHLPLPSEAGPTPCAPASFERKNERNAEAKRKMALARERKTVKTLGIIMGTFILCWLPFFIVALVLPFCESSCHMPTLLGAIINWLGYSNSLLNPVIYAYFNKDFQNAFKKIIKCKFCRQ

[5] = target: T4, 5-HT2C receptor (Homo sapiens, UniProt P28335); test: biochemical; assay type: binding; details: for Ki: [3H]mesulgerine, read-out: h5-HT2C Receptor binding Ki ± SD
T4 construct: expressed in transfected cells; host or cells: HEK 293 (membrane preparation)
T4 sequence (P28335 33-458): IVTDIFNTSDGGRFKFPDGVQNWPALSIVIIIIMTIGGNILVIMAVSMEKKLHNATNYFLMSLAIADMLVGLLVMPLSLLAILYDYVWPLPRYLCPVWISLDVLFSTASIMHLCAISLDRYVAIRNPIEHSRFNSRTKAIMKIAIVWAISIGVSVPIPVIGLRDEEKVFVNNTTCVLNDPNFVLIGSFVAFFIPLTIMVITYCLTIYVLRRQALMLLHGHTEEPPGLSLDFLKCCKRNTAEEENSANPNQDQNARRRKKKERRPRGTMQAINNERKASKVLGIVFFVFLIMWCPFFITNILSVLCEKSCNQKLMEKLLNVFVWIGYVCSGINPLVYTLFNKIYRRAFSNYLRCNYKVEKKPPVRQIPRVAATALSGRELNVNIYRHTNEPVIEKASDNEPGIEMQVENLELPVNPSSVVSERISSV

[6] = target: T5, rat TAAR1 (Rattus norvegicus, UniProt Q923Y9); test: Radioligand binding, rat TAAR1 ([3H]RO5166017)
T5 construct: expressed in transfected cells; host or cells: HEK 293 (membrane preparation)
T5 sequence (Q923Y9 whole entry): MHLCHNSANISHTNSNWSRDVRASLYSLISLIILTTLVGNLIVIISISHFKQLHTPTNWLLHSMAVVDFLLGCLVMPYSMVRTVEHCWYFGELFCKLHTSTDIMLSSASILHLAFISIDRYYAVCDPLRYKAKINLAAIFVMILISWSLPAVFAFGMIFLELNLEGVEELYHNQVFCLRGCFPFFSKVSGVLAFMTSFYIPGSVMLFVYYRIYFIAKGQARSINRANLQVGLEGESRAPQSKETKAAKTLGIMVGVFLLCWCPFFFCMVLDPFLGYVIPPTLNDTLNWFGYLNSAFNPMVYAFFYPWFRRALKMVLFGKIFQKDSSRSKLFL

[7] = target: hNET (Homo sapiens, UniProt P23975); test: Radioligand binding, NET (N-methyl-[3H]nisoxetine); set-up: expressed in transfected cells; host or cells: HEK 293 (membrane preparation)
hNET, sequence (P23975 whole entry): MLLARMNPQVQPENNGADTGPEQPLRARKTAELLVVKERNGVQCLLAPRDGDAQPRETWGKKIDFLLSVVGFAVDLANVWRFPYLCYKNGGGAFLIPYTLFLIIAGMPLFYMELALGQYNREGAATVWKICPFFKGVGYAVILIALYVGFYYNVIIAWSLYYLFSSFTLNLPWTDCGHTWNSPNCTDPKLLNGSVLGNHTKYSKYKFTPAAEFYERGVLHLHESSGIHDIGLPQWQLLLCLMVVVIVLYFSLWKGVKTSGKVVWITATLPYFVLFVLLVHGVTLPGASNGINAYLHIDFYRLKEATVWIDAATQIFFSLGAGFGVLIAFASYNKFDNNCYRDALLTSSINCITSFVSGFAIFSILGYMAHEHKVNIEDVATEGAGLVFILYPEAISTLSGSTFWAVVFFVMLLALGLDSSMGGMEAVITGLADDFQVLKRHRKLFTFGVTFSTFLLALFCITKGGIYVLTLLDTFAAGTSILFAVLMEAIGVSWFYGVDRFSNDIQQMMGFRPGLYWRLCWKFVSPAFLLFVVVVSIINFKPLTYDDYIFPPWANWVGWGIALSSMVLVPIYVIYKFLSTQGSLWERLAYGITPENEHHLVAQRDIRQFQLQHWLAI

[8] = target: T6, mouse TAAR1 (Mus musculus, UniProt Q923Y8); test: Radioligand binding, mouse TAAR1 ([3H]RO5166017)
T6 construct: expressed in transfected cells; host or cells: HEK 293 (membrane preparation)
T6 sequence (Q923Y8 whole entry): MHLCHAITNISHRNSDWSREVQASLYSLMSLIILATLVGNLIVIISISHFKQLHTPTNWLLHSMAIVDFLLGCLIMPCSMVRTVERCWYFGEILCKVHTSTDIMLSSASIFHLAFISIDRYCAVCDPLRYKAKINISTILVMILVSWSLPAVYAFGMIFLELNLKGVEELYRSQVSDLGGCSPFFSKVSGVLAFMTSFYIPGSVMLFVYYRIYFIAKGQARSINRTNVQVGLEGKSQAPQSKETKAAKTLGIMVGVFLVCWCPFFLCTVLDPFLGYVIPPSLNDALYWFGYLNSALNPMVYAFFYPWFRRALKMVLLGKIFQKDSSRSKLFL

[9] = target: T7, human 5-HT2B receptor (Homo sapiens, UniProt P41595); test: Activity at the 5-HT2B receptor (FLIPR calcium, HEK 293 cells); assay type: cell-based; details: for Emax: HEK293, relative to 5-HT = 100%, read-out: h5-HT2B Activation efficacy max ± SD
T7 construct: expressed in transfected cells; host or cells: HEK 293
T7 sequence (P41595 whole entry): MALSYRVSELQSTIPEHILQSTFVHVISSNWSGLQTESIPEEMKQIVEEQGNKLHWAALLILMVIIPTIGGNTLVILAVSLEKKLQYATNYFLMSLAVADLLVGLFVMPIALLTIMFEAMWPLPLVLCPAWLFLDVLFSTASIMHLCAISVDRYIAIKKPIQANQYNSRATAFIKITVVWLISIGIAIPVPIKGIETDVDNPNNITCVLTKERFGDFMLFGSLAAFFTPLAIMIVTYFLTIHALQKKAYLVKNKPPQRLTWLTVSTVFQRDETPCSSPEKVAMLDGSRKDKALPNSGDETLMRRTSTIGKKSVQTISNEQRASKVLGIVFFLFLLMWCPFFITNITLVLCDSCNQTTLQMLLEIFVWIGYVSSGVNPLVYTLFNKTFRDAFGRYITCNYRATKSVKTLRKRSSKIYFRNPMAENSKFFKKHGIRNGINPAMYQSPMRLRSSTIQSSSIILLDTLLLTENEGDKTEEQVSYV
Procedure: Activity at the 5-HT2B receptor was examined as previously described ([Luethi et al., 2018]). In summary, HEK 293 cells expressing the human 5-HT2B receptor were seeded at a density of 50,000 cells per well in 96-well poly-D-lysine-coated plates overnight at 37°C. The cells were then incubated in growth medium consisting of high glucose Dulbecco’s modified Eagle’s medium (DMEM) (Invitrogen, Zug, Switzerland), 10% fetal calf serum (non-dialyzed, heat-inactivated), 250 mg/l Geneticin and 10 ml/l PenStrep (Gibco), overnight at 37°C. After removal of the growth medium via snap inversion, calcium indicator Fluo-4-solution (100 µl) was injected into each well (Molecular Probes, Eugene, OR, USA) and incubated for 45 min at 31°C. Afterwards, the Fluo-4 solution was removed (snap inversion) and a further 100 µl of the Fluo-4 solution was added and incubated (45 min, 31°C). Thereafter, using the EMBLA cell washer, the cells were washed just before testing with HBSS and 20 mM HEPES and exposed to 100 µl of assay buffer. The well plate was positioned in the FLIPR and while online, 25 µl of the test compounds diluted in assay buffer were added. Concentration-response curves were calculated using nonlinear regression, and EC50 values were obtained. The maximal activity at the receptors was calculated relative to 5-HT activity which was defined as 100%.

SMILES	Ki [1]	Ki [2]	Ki [3]	Ki [4]	Increase in 5-HT2C binding affinity compared to MFEM (15) [5]	Ki [5]	Ki [6]	Ki [7]	Ki [8]	EC50 [9]	Emax [9]	Reduction of 5-HT2C binding affinity compared to TMA-2 (19) [5]	Higher 5-HT2B activation potency compared to TMA-2 (19) [9]	Increase in 5-HT2B activation potency compared to 2C-O-21 (9) [9]	Enhancement of 5-HT2C binding affinity compared to TMA-2 (19) [5]	Higher rat TAAR1 affinity than TMA-2 (19) and MIPM (18) [6]
COc1cc(OCC(F)F)c(OC)cc1CC(C)N (stereo not drawn) [MDFEM, 4-(2,2-difluoroethoxy)-2,5-dimethoxyamphetamine]	> 6.5 µM	> 4.8 µM	> 8.7 µM	> 5.6 µM	2 fold	6.7 ± 2.4 µM	1.2 ± 0.2 µM	> 9.7 µM	> 4.8 µM	0.13 ± 0.08 µM	21 ± 8%					
COc1cc(OC(C)C)c(OC)cc1CC(C)N (stereo not drawn) [MIPM, 2,5-dimethoxy-4-isopropoxyamphetamine]	> 6.5 µM	> 4.8 µM	> 8.7 µM	> 5.6 µM		9.03 ± 2.39 µM	2.9 ± 0.7 µM	> 9.7 µM	> 4.8 µM	0.18 ± 0.12 µM	20 ± 14%	2 fold	2 fold			
COc1cc(OCC(F)(F)F)c(OC)cc1CC(C)N (stereo not drawn) [MTFEM, 2,5-dimethoxy-4-(2,2,2-trifluoroethoxy)amphetamine]	> 6.5 µM	> 4.8 µM	> 8.7 µM	> 5.6 µM	~5 fold	2.4 ± 0.8 µM	1.3 ± 0.1 µM	> 9.7 µM	4.5 ± 0.5 µM	0.2 ± 0.03 µM	5%					
COc1cc(OCC(F)F)c(OC)cc1CCN [2C-O-21.5, 4-(2,2-difluoroethoxy)-2,5-dimethoxyphenethylamine]	> 6.5 µM	> 4.8 µM	> 8.7 µM	2.9 ± 0.2 µM		4.2 ± 1.5 µM	0.25 ± 0.02 µM	> 9.7 µM	> 4.8 µM	0.48 ± 0.26 µM	28 ± 23%			2 fold		
COc1cc(OCCF)c(OC)cc1CC(C)N (stereo not drawn) [MFEM, 2,5-dimethoxy-4-(2-fluoroethoxy)amphetamine]	> 6.5 µM	> 4.8 µM	> 8.7 µM	> 5.6 µM		11 ± 3 µM	1.64 ± 0.3 µM	> 9.7 µM	> 4.9 µM	0.27 ± 0.21 µM	41 ± 22%					
COc1cc(OCC(F)(F)F)c(OC)cc1CCN [2C-O-22, 2,5-dimethoxy-4-(2,2,2-trifluoroethoxy)phenethylamine]	> 6.5 µM	> 4.8 µM	> 8.7 µM	3.3 ± 0.2 µM		1.9 ± 0.4 µM	0.24 ± 0.06 µM	> 9.7 µM	2.5 ± 0.4 µM	0.25 ± 0.01 µM	28 ± 20%			4 fold		
COc1cc(OCc2ccccc2)c(OC)cc1CCN [2C-O-27, 4-benzyloxy-2,5-dimethoxyphenethylamine]	> 6.5 µM	> 4.8 µM	6.1 ± 0.4 µM	2.7 ± 0.1 µM		0.11 ± 0.05 µM	0.021 ± 0.003 µM	> 9.7 µM	0.65 ± 0.19 µM	0.48 ± 0.19 µM	39 ± 16%					
C=C(C)COc1cc(OC)c(CC(C)N)cc1OC (stereo not drawn) [MMALM, 2,5-dimethoxy-4-methallyloxyamphetamine]	> 6.5 µM	> 4.8 µM	> 8.7 µM			0.29 ± 0.11 µM	0.63 ± 0.15 µM	> 9.7 µM	1.7 ± 0.9 µM	0.029 ± 0.013 µM	85 to 101%		9 fold		18 fold	5 fold
CCOc1cc(OC)c(CCN)cc1OC [2C-O-2, 2,5-dimethoxy-4-ethoxyphenethylamine]	> 6.5 µM	> 4.8 µM	> 8.7 µM	3.6 ± 0.4 µM		2.3 ± 1.2 µM	0.34 ± 0.07 µM	> 9.7 µM	4 ± 1.1 µM	0.049 ± 0.044 µM	85 to 101%					
COc1cc(OCCF)c(OC)cc1CCN [2C-O-21, 2,5-dimethoxy-4-(2-fluoroethoxy)phenethylamine]	> 6.5 µM	> 4.8 µM	> 8.7 µM	5.5 µM		3.6 ± 1.9 µM	0.41 ± 0.04 µM	> 9.7 µM	> 4.9 µM	0.9 ± 0.45 µM	39 ± 26%					
C=CCOc1cc(OC)c(CCN)cc1OC [2C-O-16, 4-allyloxy-2,5-dimethoxyphenethylamine]	> 6.5 µM	> 4.8 µM	> 8.7 µM	4.5 ± 0.5 µM		0.47 ± 0.04 µM	0.26 ± 0.07 µM	> 9.7 µM	2.5 ± 1 µM	0.12 ± 0.07 µM	42 ± 13%					
C=C(C)COc1cc(OC)c(CCN)cc1OC [2C-O-3, 2,5-dimethoxy-4-methallyloxyphenethylamine]	> 6.5 µM	> 4.8 µM	> 8.7 µM	2.7 ± 0.2 µM		0.15 ± 0.03 µM	0.13 µM	> 9.7 µM	1.1 ± 0.4 µM	0.068 ± 0.021 µM	50 ± 22%					
C=CCOc1cc(OC)c(CC(C)N)cc1OC (stereo not drawn) [MALM, 4-allyloxy-2,5-dimethoxyamphetamine]	> 6.5 µM	> 4.4 µM	> 8.7 µM	> 5.6 µM		0.9 ± 0.22 µM	1.1 ± 0.2 µM	> 9.7 µM	2 ± 0.4 µM	0.0095 ± 0.0033 µM	85 to 101%		28 fold		6 fold	3 fold
